Reference: patent publication US8703756B2, “Synthetic procedure and cancer treatment with cisplatin derivatives” (The Board of Regents of the Nevada System of Higher …, priority 2012, dated 2014)

Assays:
[1] = tested on mice; cited from earlier work
[2] = tested on: A549 human lung cancer cells; assay: MTS cell proliferation assay, A549 lung cancer cells; assay type: cell-based; settings: for effects in this experimental setting: human cancer cell line setting of b48
Experimental: A series of cisplatin analogs of the formula (4,4′-bis[RO]-2,2′-bipyridine)PtCl2 [where, R=—(CH2)nCH3, —(CH2)nOCH3, —(CH2)n[O(CH2)m]yO(CH2)zCH3 (n=1-10; m, y, z=0-10)] were synthesized and characterized using ^1H NMR, ^13C NMR spectroscopy, and elemental analysis. The antitumor activities of these compounds were examined in a lung cancer cell line (A549) using the MTS cell proliferation assay and the results were compared to that of cisplatin and cisplatin derivatives.
(§1) Cells were cultured at a density of 2.1×10^3 cells per well in flat bottomed 96-well plates in 100 μl of medium supplemented with 10% fetal bovine serum (FBS), 25 mM HEPES buffer (pH 7.4), Penicillin (100 U/ml) and Streptomycin (100 μg/ml) and incubated at 37° C. in a humidified, 5% CO2 atmosphere for 2 days. The cells were then treated with DMSO or the appropriate drugs for 1 hour, washed thrice with 100 μl phosphate buffered saline (PBS), and incubated in 100 μl of fresh medium. After 2 days, the medium was replace with 120 μl of medium containing 50 μM phenazine ethosulfate (PES) and 317 μg/mL CellTiter 96® Aqueous One Solution Reagent (MTS) (Promega, Madison, Wis.). After 4 hours in culture the cell viability was determined by measuring the absorbance at 490 nm using a Tecan Infinite M1000 plate reader.
Cells were treated with CDDP or the platinum analogs at various concentrations for 1 hour and the viability was determined 48 h post-treatment using the MTS assay.
Cells were treated with CDDP or the platinum analogs at various concentrations for 48 hour and the viability was determined post-treatment using the MTS assay.

[3] = tested on: MCF7 human breast cancer cells; assay: MTS assay, MCF7 breast cancer cells; assay type: cell-based; settings: MCF7, up to a 1 mM concentration
Experimental: as §1
(§2) Cells were treated with CDDP or the platinum analog at various concentrations for 1 hour and the viability was determined 48 h post-treatment using the MTS assay.
(§3) This is a table comparison of EC50 (μM) determined from MTS assay data of the various cell lines treated with CDDP or the analog where R=(CH2)3CH3.

[4] = tested on: T-47D human breast cancer cells; assay: MTS assay, T-47D breast cancer cells; assay type: cell-based; settings: up to a 1 mM concentration
Experimental: as §1, §2, §3

[5] = tested on: DU-145 human prostate cancer cells; assay: MTS assay, DU-145 prostate cancer cells; assay type: cell-based; settings: DU-145, up to a 1 mM concentration
Experimental: as §1, §2, §3

[6] = tested on: MDA-MB-435 human melanoma cancer cells; assay: MTS assay, MDA-MB-435 melanoma cancer cells; assay type: cell-based; settings: MDA-MB-435, up to a 1 mM concentration
Experimental: as §1, §2, §3

[7] = tested on: HCC38 human breast cancer cells; assay: MTS assay, HCC38 breast cancer cells; assay type: cell-based; settings: HCC38, up to a 1 mM concentration
Experimental: as §1, §2, §3

Compound: Pd(II)(cis-2,2′-bipyridine)(NO3)2
- percent increased life span (% ILS) [1]: 55-70%

Compound: N.N.O=C([O-])C1(C(=O)[O-])CCC1.[Pt+2] [carboplatin]
- effects in this experimental setting [2]: lack of effects

Compound: N.N.[Cl][Pt][Cl] [cisplatin, cis-diamminedichloroplatinum]
- percent increased life span (% ILS) [1]: 65-80%
- effect on the cell line [3]: little or no effect
- effect on the cell line [4]: little or no effect
- effectiveness, 48 h treatment ([2]; A549, concentrations higher than 500 μM): not very effective
- effects in this experimental setting [2]: lack of effects
- effect on the A549 cells ([2]; one hour treatment, up to a 1 mM concentration): no effect
- effect on the cell line [5]: little or no effect
- effect on the cell line [6]: little or no effect
- effect on the cell line [7]: little or no effect

Compound: O=C(O)C(=O)O.[NH-][C@@H]1CCCC[C@H]1[NH-].[Pt+2] [oxaliplatin]
- effects in this experimental setting [2]: lack of effects
